Data published in patent US9695149B2, “1,2,6-substituted benzimidazoles as flap modulators” (JANSSEN PHARMACEUTICA NV, priority 2013, dated 2017).
Where a name gives a salt, the structure may show the parent alone.

system: leukotriene pathway in human whole blood; assay: Human whole blood assay (LTB4, A23187-stimulated); assay type: cell-based; conditions: Homo sapiens, 0.5 h, human whole blood diluted 1:1 in RPMI, calcium ionophore A23187 7 μg/mL, 30 min
Experimental: (§1) The ability of the compounds of the present invention to treat a FLAP-mediated disease and/or disorder, or associated symptoms or complications thereof, was determined using the following procedures. Binding assay data represent the average value obtained from two different assay plates, with samples run in duplicate on each plate. Human whole blood assay data represent a single replicate on an assay plate using whole blood from at least one healthy donor.
An in vitro cellular assay was performed using human whole blood collected in heparin-containing tubes, which was used to test the ability of compounds to modulate the leukotriene pathway in human whole blood. The blood was diluted 1:1 in RPMI medium, pre-incubated for 15 min at 37° Celsius with test compounds at various concentrations, and then stimulated with calcium ionophore, A23187 (7 μg/mL), for 30 min at 37° Celsius. The samples were then centrifuged and plasma was removed. The plasma was diluted in assay buffer and LTB4 levels were measured using a commercial kit (Enzo Life Sciences). The concentration of each compound that was required for half-maximal inhibition (modulation) of […] (IC50) was calculated by a 4-parameter equation using the program GraphPad Prism (GraphPad software). For analysis, data are imported into 3DX and aggregated as the average of duplicates of the calculated ratios in order to calculate Ki and IC50 values. Numbers in parentheses are the number of runs for the assay.

SMILES | IC50
Cc1cnc(COc2ccc3nc(C4CCCC[C@H]4C(=O)O)n(Cc4ccc(N5CCC(C(F)(F)F)CC5)cc4F)c3c2)c(F)c1 (mixture of isomers) [Example 192, racemic cis-2-(6-[(3-Fluoro-5-methylpyridin-2-yl)methoxy]-1-{2-fluoro-4-[4-(trifluoromethyl)piperidin-1-yl]benzyl}-1H-benzimidazol-2-yl)cyclohexanecarboxylic acid] | 110 nM
Cc1cnc(COc2ccc3nc(CC(C)(C)C(=O)O)n(Cc4cccc(Br)c4)c3c2)c(F)c1 [Example 191, 3-{1-(3-Bromobenzyl)-6-[(3-fluoro-5-methylpyridin-2-yl)methoxy]-1H-benzimidazol-2-yl}-2,2-dimethylpropanoic acid] | > 10000 nM

Next, values leading:

IC50 | SMILES
1600 nM | Cc1ccc(COc2ccc3nc(C4CCCC[C@H]4C(=O)O)n(Cc4cccc(N5CC(F)(F)C5)c4)c3c2)nc1 (mixture of isomers) [Example 219, racemic cis-2-{1-[3-(3,3-Difluoroazetidin-1-yl)benzyl]-6-[(5-methylpyridin-2-yl)methoxy]-1H-benzimidazol-2-yl}cyclohexanecarboxylic acid]
650 nM | Cc1ccc(COc2ccc3nc(C4CCCC[C@H]4C(=O)O)n(Cc4cccc(N5CCC(F)(F)C5)c4)c3c2)nc1 (mixture of isomers) [Example 220, racemic cis-2-{1-[3-(3,3-Difluoropyrrolidin-1-yl)benzyl]-6-[(5-methylpyridin-2-yl)methoxy]-1H-benzimidazol-2-yl}cyclohexanecarboxylic acid]
4520 nM | Cc1ccc(COc2ccc3nc(C4[C@H](C(=O)O)C4(C)C)n(Cc4cc(Br)ccc4F)c3c2)nc1 (mixture of isomers) [Example 227, racemic cis-3-{1-(5-Bromo-2-fluorobenzyl)-6-[(5-methylpyridin-2-yl)methoxy]-1H-benzimidazol-2-yl}-2,2-dimethylcyclopropanecarboxylic acid]
4170 nM | Cc1ccc(COc2ccc3nc(C4CCCC[C@H]4C(=O)O)n(Cc4cc(Br)ccc4F)c3c2)nc1 (mixture of isomers) [Example 218, racemic trans-2-{1-(5-Bromo-2-fluorobenzyl)-6-[(5-methylpyridin-2-yl)methoxy]-1H-benzimidazol-2-yl}cyclohexanecarboxylic acid]

same assay, conditions: human whole blood diluted 1:1 in RPMI, calcium ionophore A23187 7 μg/mL, 30 min

IC50 | SMILES
320 nM | Cc1ccc(COc2ccc3nc(C4CCCC[C@H]4C(=O)O)n(Cc4cccc(N5CCCCC5)c4)c3c2)nc1 (mixture of isomers) [Example 223, racemic cis-2-{6-[(5-Methylpyridin-2-yl)methoxy]-1-(3-piperidin-1-ylbenzyl)-1H-benzimidazol-2-yl}cyclohexanecarboxylic acid]
2170 nM | Cc1ccc(COc2ccc3nc(C4CCCC[C@H]4C(=O)O)n(Cc4cccc(N5CCCCC5)c4)c3c2)nc1 (mixture of isomers) [Example 224, racemic trans-2-{6-[(5-Methylpyridin-2-yl)methoxy]-1-(3-piperidin-1-ylbenzyl)-1H-benzimidazol-2-yl}cyclohexanecarboxylic acid]
6640 nM | Cc1ccc(COc2ccc3nc([C@H]4CCCC[C@H]4C(=O)O)n(Cc4cc(Br)ccc4F)c3c2)nc1 (racemic) [Example 229, racemic-cis-2-{1-(5-Bromo-2-fluorobenzyl)-6-[(5-methylpyridin-2-yl)methoxy]-1H-benzimidazol-2-yl}cyclohexanecarboxylic acid]

target: human FLAP (Homo sapiens (Human), UniProt P20292); assay: FLAP binding assay (HTRF format); conditions: human FLAP-containing Sf-9 membranes, wild type; average of runs
Sequence (P20292 whole entry): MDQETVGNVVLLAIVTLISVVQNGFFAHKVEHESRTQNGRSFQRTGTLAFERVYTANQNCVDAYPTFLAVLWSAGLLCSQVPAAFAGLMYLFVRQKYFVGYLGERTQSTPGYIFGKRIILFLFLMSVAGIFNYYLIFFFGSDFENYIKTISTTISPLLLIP
Experimental: as §1
The assay below is used to test the modulatory activity of compounds against FLAP. Human and mouse FLAP-encoding DNA was amplified by polymerase chain reaction and cloned into pFastBac1 (Invitrogen) with a NH2-terminal 6-His tag for expression in Spodoptera frugiperda (Sf-9) cells. FLAP-containing membranes were prepared as was a FITC-labeled FLAP modulator (3-(3-(tert-butylthio)-1-(4-chlorobenzyl)-5-(quinolin-2-ylmethoxy)-1H-indol-2-yl)-2,2-dimethylpropanoic acid). The FLAP binding assay is performed in HTRF format (homogeneous time resolved fluorescence). […] The reaction is allowed to proceed for two hours after which the plate is read on an Envision plate reader in HTRF mode. Data are expressed as a HTRF ratio.
For human FLAP binding assays, data are analyzed with 3DX Explorer software. […] For analysis, data from multiple runs are averaged and each compound may be tested in 2 to 20 runs. Each run comprises two plates and each plate includes duplicates. Data from each plate is averaged and data are imported into 3DX. The data from multiple runs are aggregated as the average of duplicates of the calculated ratios in order to calculate Ki and IC50 values. Numbers in parentheses are the number of runs for the assay.

SMILES | Ki
CCC(CC)(Cc1nc2ccc(OCc3ccc(C)cn3)cc2n1Cc1cccc(-c2cnc(OC)nc2)c1)C(=O)O [Example 196, 2-Ethyl-2-({1-[3-(2-methoxypyrimidin-5-yl)benzyl]-6-[(5-methylpyridin-2-yl)methoxy]-1H-benzimidazol-2-yl}methyl)butanoic acid] | ~500 nM
Cc1cnc(COc2ccc3nc(C4CCCC[C@H]4C(=O)O)n(Cc4ccc(N5CCC(C(F)(F)F)CC5)cc4F)c3c2)c(F)c1 (mixture of isomers) [Example 192, racemic cis-2-(6-[(3-Fluoro-5-methylpyridin-2-yl)methoxy]-1-{2-fluoro-4-[4-(trifluoromethyl)piperidin-1-yl]benzyl}-1H-benzimidazol-2-yl)cyclohexanecarboxylic acid] | 0.95 nM
Cc1cnc(COc2ccc3nc(CC(C)(C)C(=O)O)n(Cc4cccc(Br)c4)c3c2)c(F)c1 [Example 191, 3-{1-(3-Bromobenzyl)-6-[(3-fluoro-5-methylpyridin-2-yl)methoxy]-1H-benzimidazol-2-yl}-2,2-dimethylpropanoic acid] | 70 nM
Cc1ccc(COc2ccc3nc(C4[C@H](C(=O)O)C4(C)C)n(Cc4ccccc4C)c3c2)nc1 (mixture of isomers) [Example 210, racemic cis-2,2-Dimethyl-3-{1-(2-methylbenzyl)-6-[(5-methylpyridin-2-yl)methoxy]-1H-benzimidazol-2-yl}cyclopropanecarboxylic acid] | ~1750 nM
Cn1ccc(COc2ccc3nc(C4CCCC[C@H]4C(=O)O)n(Cc4cccc(Br)c4)c3c2)n1 (single isomer, unassigned) [Example 198, (1R*,2S*)-2-{1-(3-Bromobenzyl)-6-[(1-methyl-1H-pyrazol-3-yl)methoxy]-1H-benzimidazol-2-yl}cyclohexanecarboxylic acid] | > 10000 nM
CCC(CC)(Cc1nc2ccc(OCc3ccn(C)n3)cc2n1Cc1ccc(-c2cnc(OC)nc2)cc1F)C(=O)O [Example 214, 2-Ethyl-2-({1-[2-fluoro-4-(2-methoxypyrimidin-5-yl)benzyl]-6-[(1-methyl-1H-pyrazol-3-yl)methoxy]-1H-benzimidazol-2-yl}methyl)butanoic acid] | ~2500 nM
Cc1ccc(COc2ccc3nc(C4[C@H](C(=O)O)C4(C)C)n(Cc4cccc(C)c4)c3c2)nc1 (mixture of isomers) [Example 202, racemic cis-2,2-Dimethyl-3-{1-(3-methylbenzyl)-6-[(5-methylpyridin-2-yl)methoxy]-1H-benzimidazol-2-yl}cyclopropanecarboxylic acid] | ~750 nM
CCC(CC)(Cc1nc2ccc(OCc3ccn(C)n3)cc2n1Cc1ccc(N2CCC(F)(F)C2)cc1)C(=O)O [Example 216, 2-({1-[4-(3,3-Difluoropyrrolidin-1-yl)benzyl]-6-[(1-methyl-1H-pyrazol-3-yl)methoxy]-1H-benzimidazol-2-yl}methyl)-2-ethylbutanoic acid] | ~180 nM
Cn1ccc(COc2ccc3nc(C4CCCC[C@H]4C(=O)O)n(Cc4cccc(C#N)c4)c3c2)n1 (mixture of isomers) [Example 199, racemic cis-2-{1-(3-Cyanobenzyl)-6-[(1-methyl-1H-pyrazol-3-yl)methoxy]-1H-benzimidazol-2-yl}cyclohexanecarboxylic acid] | ~2500 nM
CCC(CC)(Cc1nc2ccc(OCc3ccn(C)n3)cc2n1Cc1cccc(-c2cnc(OC)nc2)c1)C(=O)O [Example 213, 2-Ethyl-2-({1-[3-(2-methoxypyrimidin-5-yl)benzyl]-6-[(1-methyl-1H-pyrazol-3-yl)methoxy]-1H-benzimidazol-2-yl}methyl)butanoic acid] | ~940 nM

Results, then the molecule that gave them:

Ki | SMILES
9.1 nM | Cc1ccc(COc2ccc3nc(C4CCCC[C@H]4C(=O)O)n(Cc4cccc(N5CC(F)(F)C5)c4)c3c2)nc1 (mixture of isomers) [Example 219, racemic cis-2-{1-[3-(3,3-Difluoroazetidin-1-yl)benzyl]-6-[(5-methylpyridin-2-yl)methoxy]-1H-benzimidazol-2-yl}cyclohexanecarboxylic acid]
~870 nM | Cc1ccc(COc2ccc3nc(CC(C)(C)C(=O)O)n(Cc4cc(Br)ccc4F)c3c2)nc1 [Example 225, 3-{1-(5-Bromo-2-fluorobenzyl)-6-[(5-methylpyridin-2-yl)methoxy]-1H-benzimidazol-2-yl}-2,2-dimethylpropanoic acid]
~750 nM | Cc1ccc(COc2ccc3nc(CC(C)(C)C(=O)O)n(Cc4cccc(Br)c4)c3c2)nc1 [Example 232, 3-{1-(3-Bromobenzyl)-6-[(5-methylpyridin-2-yl)methoxy]-1H-benzimidazol-2-yl}-2,2-dimethylpropanoic acid as the trifluoroacetic acid salt]
60 nM | Cc1ccc(COc2ccc3nc(C4CCCC[C@H]4C(=O)O)n(Cc4cccc(Br)c4)c3c2)nc1 (mixture of isomers) [Example 217, racemic trans-2-{1-(3-Bromobenzyl)-6-[(5-methylpyridin-2-yl)methoxy]-1H-benzimidazol-2-yl}cyclohexanecarboxylic acid]
> 10000 nM | CCC(CC)(Cc1nc2ccc(OCc3ccn(C)n3)cc2n1Cc1cc(Br)ccc1F)C(=O)O [Example 234, 2-({1-(5-Bromo-2-fluorobenzyl)-6-[(1-methyl-1H-pyrazol-3-yl)methoxy]-1H-benzimidazol-2-yl}methyl)-2-ethylbutanoic acid]
